Data set [1] in a line: Experiments of toxicity in mice, tail vein injection. Conditions: both sexes, ICR, mouse, in vivo. The format is in vivo. As for the experimental part: (§1) ICR mice of either sex weighing between 18-22 g were randomized into groups of 3 mice per group. […] The number of mice that died and the time of death were recorded. […] Tails were removed from the mice that were not dead from the injection and from the normal mice that were not given any of the compounds, and were then fixed in paraformaldehyde. Tail vessels were observed by HE staining to determine whether or not a lesion existed.

A further data set deals with ICR mice. The description is as above. In kind it is in vivo. Conditions: for Toxicity/yes or no: ICR mice, tail vein injection; for Mortality rate / Number of deaths / Time of death: both, ICR, mouse, in vivo. As for the experimental part: as §1
Data set [2] has as its system Enterobacter cloacae ATCC 43560. Description: Antibiotic susceptibility test, broth microdilution (CLSI), MIC. In kind it is cell-based. The conditions noted are these: ATCC43560, 35° C., 18 h, read-out: Minimal inhibitory concentration (MIC). On the procedure:
(§2) An antibiotic susceptibility test was carried out using the broth microdilution guidelines as stipulated by the Clinical and Laboratory Standards Institute (CLSI). Test organisms were grown in Mueller-Hinton (MH) or Brain Heart Infusion (BHI) broth. Solutions of compounds to be tested were each diluted in 96-well plates (50 μl per well) to various prescribed concentrations with the MH or BHI broth. Final concentrations of the solutions in each well were as follows: 128, 64, 32, 16, 8, 4, 2, 1, 0.5, 0.25, 0.125, 0.06, and 0.03 μg/ml. The culture mediums in the 96-well plates were inoculated with 5×10^5 CFU/ml of the test organisms, and then the organisms were cultured at 35° C. for 18 h.

In data set [3] the test system is Klebsiella pneumoniae ATCC 700603. The data set is described as above. In kind it is cell-based. The conditions noted are these: ATCC700603, 35° C., 18 h, read-out: Minimal inhibitory concentration (MIC). On the procedure: as §2
Data set [4] relates to NDM-1-producing Klebsiella pneumoniae 2146. The data set is described as above. The format is cell-based. The conditions noted are these: 35° C., 18 h, read-out: Minimal inhibitory concentration (MIC). On the procedure:
as §2

The subject of the next data set is E. coli ATCC 25922. Described as above. The conditions noted are these: Escherichia coli, ATCC25922, 35° C., 18 h, read-out: Minimal inhibitory concentration (MIC). The format is cell-based. On the procedure: as §2
In data set [5] the test system is Pseudomonas aeruginosa ATCC 27853. Described as above. In kind it is cell-based. The conditions noted are these: ATCC27853, 35° C., 18 h, read-out: Minimal inhibitory concentration (MIC). As for the experimental part:
as §2

Data set [6] deals with Enterobacter aerogenes ATCC 13048. The description is as above. In kind it is cell-based. Conditions: Klebsiella aerogenes, ATCC13048, 35° C., 18 h, read-out: Minimal inhibitory concentration (MIC). As for the experimental part:
as §2

The source of these data is patent publication US11827612B2, “Hydroxamic acid derivative, method for producing same and use thereof” (INSTITUTE OF MEDICINAL BIOTECHNOLOGY, CHINESE ACADEMY OF …, priority 2019, dated 2023).

Converted amounts (≈) assume the structure as drawn.

With `CO[C@H]1CCC[C@@H]1C#CC#Cc1ccc(C(=O)N[C@H](C(=O)NO)C(C)(C)N)cc1` [I-1, N—((S)-3-amino-1-(hydroxyamino)-3-methyl-1-oxobutan-2-yl)-4-(((1R,2S)-2-methoxycyclopentyl)butan-1,3-diyne-1-yl)benzamide], the MTD in data set [1] is above 100 mg/kg. For the same compound, the Toxicity/yes or no result with ICR mice (dose 100 mg/kg) is listed as “no”; in the data set with ICR mice (dose 200 mg/kg) it was “yes”; in the data set with ICR mice (dose 300 mg/kg), “yes”. For the same compound, the Mortality rate in the data set on ICR mice (100 mg/kg) is given as 0%; in the data set with ICR mice (200 mg/kg) it was 66%; with ICR mice (300 mg/kg), 100%. Also, the results for the Number of deaths in the data set with ICR mice (100 mg/kg), in the data set on ICR mice (200 mg/kg) and in the data set on ICR mice (300 mg/kg) were 0, 2 and 1, respectively. Further, the Time of death was 10 to 20 min in the data set with ICR mice (200 mg/kg) and 1 min in the data set with ICR mice (300 mg/kg). Further, the MIC was found to be 1 µg/mL (≈ 2.52 µM) in data set [2]; 2 µg/mL (≈ 5.03 µM) in data set [3]; 2 µg/mL (≈ 5.03 µM) in data set [4]; 0.125 µg/mL (≈ 0.314 µM) with E. coli ATCC 25922; 0.5 µg/mL (≈ 1.26 µM) in data set [5]; 1 µg/mL (≈ 2.52 µM) in data set [6].

In turn, `CC(C)(N)[C@H](NC(=O)N1CCN(C#CC#Cc2ccc([N+](=O)[O-])cc2)CC1)C(=O)NO` [I-2, (S)—N-(3-amino-1-(hydroxyamino)-3-methyl-1-oxobutan-2-yl)-4-((4-nitrophenyl)butan-1,3-diyne-1-yl)-piperazin-1-carboxamide] registered an MTD in data set [1] above 100 mg/kg. The values for the Toxicity/yes or no result in the data set on ICR mice (dose 100 mg/kg), in the data set with ICR mice (dose 200 mg/kg) and with ICR mice (dose 300 mg/kg) were “no”, “yes” and “yes”, respectively. For the same compound, the Mortality rate in the data set with ICR mice (100 mg/kg) came to 0%; with ICR mice (200 mg/kg), 66%; in the data set with ICR mice (300 mg/kg), 100%. Moreover, the Number of deaths was found to be 0 in the data set on ICR mice (100 mg/kg), 2 with ICR mice (200 mg/kg) and 1 in the data set on ICR mice (300 mg/kg). The Time of death in the data set on ICR mice (200 mg/kg) lay within 10 to 15 min; in the data set on ICR mice (300 mg/kg) it was 0.5 to 1 min. The MIC in data set [2] is 0.5 µg/mL (≈ 1.17 µM); in data set [3], 2 µg/mL (≈ 4.67 µM); in data set [4], 2 µg/mL (≈ 4.67 µM); in the data set on E. coli ATCC 25922, 0.125 µg/mL (≈ 0.292 µM); in data set [5] it was 0.25 µg/mL (≈ 0.584 µM); in data set [6] it was 2 µg/mL (≈ 4.67 µM).

In data set [1], `CC(C)(N)[C@H](NC(=O)c1ccc(C#CC#Cc2ccc(CN3CCCCC3)cc2)cc1O)C(=O)NO` [I-3, (S)—N-(3-amino-1-(hydroxyamino)-3-methyl-1-oxobutan-2-yl)-2-hydroxy-4-((4-(piperidin-1-ylmethyl)phenyl)butan-1,3-diyne-1-yl)benzamide] displayed an MTD above 100 mg/kg. The Toxicity/yes or no result in the data set with ICR mice (dose 100 mg/kg) is given as “no”; in the data set on ICR mice (dose 200 mg/kg), “yes”; in the data set on ICR mice (dose 300 mg/kg), “yes”. In addition, the Mortality rate with ICR mice (100 mg/kg) is reported as 0%; in the data set on ICR mice (200 mg/kg), 66%; in the data set on ICR mice (300 mg/kg), 100%. Further, the Number of deaths with ICR mice (100 mg/kg) turned out to be 0; in the data set on ICR mice (200 mg/kg), 2; with ICR mice (300 mg/kg) it was 1. Moreover, the Time of death with ICR mice (200 mg/kg) is 10 to 20 min; in the data set with ICR mice (300 mg/kg), 1 min. Besides, the MIC in data set [2] was found to be 1 µg/mL (≈ 2.05 µM); in data set [3], 4 µg/mL (≈ 8.19 µM); in data set [4] it was 2 µg/mL (≈ 4.09 µM); with E. coli ATCC 25922, 0.125 µg/mL (≈ 0.256 µM); in data set [5] it was 0.5 µg/mL (≈ 1.02 µM); in data set [6], 2 µg/mL (≈ 4.09 µM).

Consider `C[C@H]1COc2c(N3CCN(C)CC3)c(F)cc3c(=O)c(C(=O)O)cn1c23` [Levofloxacin, levofloxacin, reference compound], for which the MIC in data set [2] was at most 0.25 µg/mL; in data set [3] it was 0.5 µg/mL (≈ 1.38 µM); in data set [4] it was above 64 µg/mL; in the data set on E. coli ATCC 25922, at most 0.25 µg/mL; in data set [5] it was 1 µg/mL (≈ 2.77 µM); in data set [6] it was at most 0.25 µg/mL.
